Experimental data: PMC10082729, “First study on in vitro antiviral and virucidal effects of flavonoids against feline infectious peritonitis virus at the early stage of infection” (Veterinary World, 2023)
Where two headings read alike, the source gives them in different places.

Tests used:
Duck hepatitis A virus = tested on: Duck hepatitis A virus; set-up: method as in PMID 27927057; details: in vitro, at 20 µg/mL; cited from earlier work
FIPV = test: Post-viral entry assay, FIPV-infected cells by IPMA; details: Alphacoronavirus 1, CRFK
in vitro = details: cat, CC50
[1] = tested on: Respiratory syncytial virus; details: cited from earlier work
Influenza A virus = details: in vitro; cited from earlier work
SARS-CoV-2 RdRp = details: in vitro; cited from earlier work

## COc1ccc(-c2cc(=O)c3c(O)cc(O[C@@H]4O[C@H](CO[C@@H]5O[C@@H](C)[C@H](O)[C@@H](O)[C@H]5O)[C@@H](O)[C@H](O)[C@H]4O)cc3o2)cc1 [Linarin]
CRFK cells
  CC50: > 200 µM
Duck hepatitis A virus
  inhibition: Duck hepatitis A virus (in vitro: 69.3% inhibition at 20 µg/mL)

## O=c1cc(-c2ccc(O)c(O)c2)oc2cc(O)cc(O)c12 [Luteolin]
FIPV
  EC50: 36.28 ± 0.03 µM
  EC90: 66 ± 1.82 µM
In vitro
  CC50 at 24 h: > 200 µM
CRFK cells; cat, 24 h
  CC10: 136.80 ± 2.37 µM
  CC50: 248 ± 3.4 µM
[1]
  antiviral activity (in vitro concentration): 2.08 to 24.71 µM
Influenza A virus
  EC50: 6.89 to 7.15 µM
SARS-CoV-2 RdRp
  IC50: 4.6 µM
